This is an account of results in ChEMBL document CHEMBL5042509, “Benzophenone Glucosides and B-Type Proanthocyanidin Dimers from Zambian Cassia abbreviata and Their Trypanocidal Activities” (J Nat Prod, 2022).

Molecules are shown by their SMILES. Converted amounts (≈) assume the structure as drawn.

Assay [1] has as its system Trypanosoma brucei rhodesiense. Description: Trypanocidal activity against Trypanosoma brucei rhodesiense assessed as parasite growth inhibition at 50 ug/ml incubated for 3 days by Celltiter-Glo luminescence assay. In kind it is functional. Also on record: scale not given: the % may be the effect or the level left. Conditions: dose 50 µg/ml; time 3 day. A general note: ATP-based viability assays read luminescence as a measure of living cells.

Assay [2] concerns Trypanosoma brucei rhodesiense. Description: Trypanocidal activity against Trypanosoma brucei rhodesiense IL1501 assessed as parasite growth inhibition at 50 ug/ml incubated for 3 days by Celltiter-Glo luminescence assay. Further details: scale not given: the % may be the effect or the level left. In kind it is functional. Conditions: dose 50 µg/ml; time 3 day.
The subject of assay [3] is Trypanosoma evansi. Description: Trypanocidal activity against Trypanosoma evansi assessed as parasite growth inhibition at 50 ug/ml incubated for 3 days by Celltiter-Glo luminescence assay. In kind it is functional. Further details: scale not given: the % may be the effect or the level left. The conditions noted are these: dose 50 µg/ml; time 3 day.
The test system of assay [4] is Trypanosoma brucei brucei. Description: Trypanocidal activity against Trypanosoma brucei brucei GUTat3.1 assessed as parasite growth inhibition at 50 ug/ml incubated for 3 days by Celltiter-Glo luminescence assay. In kind it is functional. Conditions: dose 50 µg/ml; time 3 day. Also on record: scale not given: the % may be the effect or the level left.
For assay [5], the system named is Trypanosoma brucei gambiense. Description: Trypanocidal activity against Trypanosoma brucei gambiense IL1922 assessed as parasite growth inhibition at 50 ug/ml incubated for 3 days by Celltiter-Glo luminescence assay. Conditions: dose 50 µg/ml; time 3 day. Further details: scale not given: the % may be the effect or the level left. It counts as functional.
In assay [6] the test system is Trypanosoma congolense. Description: Trypanocidal activity against Trypanosoma congolense IL3000 assessed as parasite growth inhibition at 50 ug/ml incubated for 3 days by Celltiter-Glo luminescence assay. Also on record: scale not given: the % may be the effect or the level left. The conditions noted are these: dose 50 µg/ml; time 3 day.
For assay [7], the system named is Trypanosoma brucei rhodesiense. Description: Trypanocidal activity against Trypanosoma brucei rhodesiense assessed as parasite growth inhibition incubated for 3 days by Celltiter-Glo luminescence assay. Conditions: 72 h. In kind it is functional, organism-based.
In assay [8] the test system is Trypanosoma evansi. Description: Trypanocidal activity against Trypanosoma evansi assessed as parasite growth inhibition incubated for 3 days by Celltiter-Glo luminescence assay. In kind it is functional, organism-based. Conditions: 72 h.
The test system of assay [9] is Trypanosoma congolense. Description: Trypanocidal activity against Trypanosoma congolense IL3000 assessed as parasite growth inhibition incubated for 3 days by Celltiter-Glo luminescence assay. The conditions noted are these: IL3000, 72 h.

For the molecule `COc1ccc(O[C@@H]2O[C@H](CO)[C@@H](O)[C@H](O)[C@H]2O)cc1OC`, the Activity in assay [1] came to 8.9%; in [2], 0%; with Trypanosoma evansi [3], 0%; in assay [4], 0%; in [5], 0%; in the assay with Trypanosoma congolense [6], 0%.
With `Oc1ccc([C@H]2Oc3cc(O)ccc3[C@H](c3c(O)cc(O)c4c3O[C@H](c3cc(O)c(O)c(O)c3)[C@H](O)C4)[C@@H]2O)cc1`, the Activity stood at 99.9% in assay [1]; 13.65% in assay [2]; 99.69% in the assay on Trypanosoma evansi [3]; 0% in assay [4]; 26.1% in assay [5]; 99.67% in the assay with Trypanosoma congolense [6]. In addition, the values for the IC50 (in assay [7]; with Trypanosoma evansi [8]; with Trypanosoma congolense [9]) were 3.91 µg/mL (≈ 6.95 µM), 23.2 µg/mL (≈ 41.2 µM) and 15.3 µg/mL (≈ 27.3 µM), respectively.
Take `Cc1cc(O)c(C(=O)c2c(O)cccc2O[C@@H]2O[C@H](CO)[C@@H](O)[C@H](O)[C@H]2O)c(C(=O)O)c1`: the Activity in [1] came to 34.99%; in assay [2] it was 2.22%; in the assay with Trypanosoma evansi [3], 0%; in [4] it was 15.74%; in assay [5], 5.44%; in the assay with Trypanosoma congolense [6] it was 20.76%.
As for `Oc1ccc2c(c1)O[C@H](c1cc(O)c(O)c(O)c1)[C@@H](O)[C@H]2c1c(O)cc(O)c2c1O[C@H](c1ccc(O)c(O)c1)[C@H](O)C2`, the Activity is 100.09% in [1]; 60.48% in assay [2]; 100.24% in the assay on Trypanosoma evansi [3]; 44.09% in assay [4]; 83.48% in [5]; 100.13% in the assay with Trypanosoma congolense [6]. The half-inhibitory concentration (IC50) – broadly, the point on the concentration scale where inhibition reaches its midpoint – in assay [7] came out at 5.42 µg/mL (≈ 9.37 µM); with Trypanosoma evansi [8], 5.51 µg/mL (≈ 9.52 µM); in the assay with Trypanosoma congolense [9] it was 7.15 µg/mL (≈ 12.4 µM).
For `COc1cc(O[C@@H]2O[C@H](CO)[C@@H](O)[C@H](O)[C@H]2O[C@@H]2O[C@@H](C)[C@H](OC(C)=O)[C@@H](OC(C)=O)[C@H]2OC(C)=O)cc(OC)c1OC`, the Activity was 89.65% in assay [1]; 27.17% in assay [2]; 0% with Trypanosoma evansi [3]; 44.45% in [4]; 38.79% in assay [5]; 91.43% with Trypanosoma congolense [6]. Also, the IC50 in assay [7] turned out to be 33.3 µg/mL (≈ 53.8 µM); in the assay with Trypanosoma congolense [9] it was 40.9 µg/mL (≈ 66.1 µM).
On to `Oc1ccc([C@H]2Oc3cc(O)ccc3[C@@H](c3c(O)cc(O)c4c3O[C@H](c3cc(O)c(O)c(O)c3)[C@H](O)C4)[C@@H]2O)cc1`, for which the Activity in assay [1] amounted to 90.97%; in [2], 57.75%; in the assay with Trypanosoma evansi [3], 69.94%; in [4], 48.67%; in [5], 57.94%; with Trypanosoma congolense [6], 69.89%. Also, the IC50 in assay [7] worked out at 4.13 µg/mL (≈ 7.34 µM); in the assay on Trypanosoma evansi [8], 3.32 µg/mL (≈ 5.9 µM); with Trypanosoma congolense [9] it was 5.32 µg/mL (≈ 9.46 µM).
Turning to `COc1cc(O[C@@H]2O[C@H](CO)[C@@H](O)[C@H](O)[C@H]2O[C@@H]2O[C@@H](C)[C@H](O)[C@@H](O)[C@H]2O)cc(OC)c1OC`, the Activity is 5.42% in assay [1]; 2.26% in assay [2]; 0% in the assay on Trypanosoma evansi [3]; 0.72% in assay [4]; 0.1% in assay [5]; 0% in the assay on Trypanosoma congolense [6].
As to `Oc1ccc([C@H]2Oc3cc(O)ccc3[C@@H](c3c(O)cc(O)c4c3O[C@H](c3ccc(O)c(O)c3)[C@@H](O)C4)[C@@H]2O)cc1`, the Activity came out at 88.52% in [1]; 6.96% in [2]; 0% in the assay on Trypanosoma evansi [3]; 20.95% in assay [4]; 6.42% in assay [5]; 20.82% in the assay on Trypanosoma congolense [6].
Take `Oc1ccc([C@H]2Oc3cc(O)ccc3[C@H](c3c(O)cc(O)c4c3O[C@H](c3ccc(O)c(O)c3)[C@H](O)C4)[C@@H]2O)cc1`: the Activity came out at 59.53% in assay [1]; 1.57% in [2]; 0% with Trypanosoma evansi [3]; 13.03% in assay [4]; 10.01% in [5]; 35.26% in the assay with Trypanosoma congolense [6].
For `COc1ccc(O[C@@H]2O[C@H](CO)[C@@H](O)[C@H](O)[C@H]2O[C@@H]2OC[C@](O)(CO)[C@H]2O)cc1OC`, the Activity in [1] is listed as 2.69%; in [2] it was 0%; with Trypanosoma evansi [3], 0.6%; in assay [4] it was 0%; in assay [5], 0%; in the assay on Trypanosoma congolense [6] it was 0%.
Consider `COc1cc(C(=O)O)cc(OC)c1O[C@@H]1O[C@H](CO)[C@@H](O)[C@H](O)[C@H]1O`, for which the Activity in [1] is recorded as 53.1%; in assay [2], 20.63%; with Trypanosoma evansi [3], 0%; in [4], 9.64%; in assay [5], 14.44%; with Trypanosoma congolense [6], 0%.
Take `Cc1cc(O[C@@H]2O[C@H](CO)[C@@H](O)[C@H](O)[C@H]2O)c(C(=O)c2c(O)cccc2O)c(C(=O)O)c1`: the Activity came to 85.05% in assay [1]; 3.46% in assay [2]; 29.06% with Trypanosoma evansi [3]; 18.9% in assay [4]; 7.09% in [5].
Take `Oc1ccc2c(c1)O[C@H](c1ccc(O)c(O)c1)[C@@H](O)[C@@H]2c1c(O)cc(O)c2c1O[C@H](c1ccc(O)c(O)c1)[C@@H](O)C2`: the Activity is reported as 99.6% in [1]; 2.52% in assay [2]; 32.9% with Trypanosoma evansi [3]; 20.31% in [4]; 4.59% in assay [5]; 36.23% in the assay with Trypanosoma congolense [6].
Take `Oc1ccc([C@H]2Oc3c(c(O)cc(O)c3[C@@H]3c4ccc(O)cc4O[C@H](c4ccc(O)c(O)c4)[C@H]3O)C[C@H]2O)cc1`: the Activity was found to be 90.49% in assay [1]; 9.66% in [2]; 0% with Trypanosoma evansi [3]; 16.43% in assay [4]; 10.09% in assay [5]; 33.1% in the assay on Trypanosoma congolense [6].
With `Oc1ccc([C@H]2Oc3cc(O)ccc3[C@@H](c3c(O)cc(O)c4c3O[C@H](c3cc(O)c(O)c(O)c3)[C@@H](O)C4)[C@@H]2O)cc1`, the Activity in [1] is 99.92%; in assay [2], 20.49%; in the assay with Trypanosoma evansi [3] it was 99.77%; in assay [4], 35.39%; in assay [5], 26.67%; with Trypanosoma congolense [6] it was 99.74%. Further, the IC50 in assay [7] worked out at 4.02 µg/mL (≈ 7.15 µM); in the assay with Trypanosoma evansi [8], 14.9 µg/mL (≈ 26.5 µM); with Trypanosoma congolense [9], 7.53 µg/mL (≈ 13.4 µM).
`Oc1ccc2c(c1)O[C@H](c1ccc(O)c(O)c1)[C@@H](O)[C@H]2c1c(O)cc(O)c2c1O[C@H](c1ccc(O)c(O)c1)[C@H](O)C2`: the Activity came to 82.26% in assay [1]; 19.57% in assay [2]; 4.88% in the assay with Trypanosoma evansi [3]; 12.85% in assay [4]; 9.9% in assay [5]; 37.33% in the assay with Trypanosoma congolense [6].
Turning to `COc1cc(O[C@@H]2O[C@H](CO)[C@@H](O)[C@H](O)[C@H]2O[C@@H]2OC[C@](O)(CO)[C@H]2O)cc(OC)c1OC`, the Activity was 60.74% in [1]; 0.73% in [2]; 0% with Trypanosoma evansi [3]; 0% in assay [4]; 0% in [5]; 0% in the assay with Trypanosoma congolense [6].
Consider `Oc1ccc2c(c1)O[C@H](c1ccc(O)c(O)c1)[C@@H](O)[C@H]2c1c(O)cc(O)c2c1O[C@H](c1cc(O)c(O)c(O)c1)[C@H](O)C2`, for which the Activity was 100.02% in assay [1]; 42.7% in [2]; 100.12% in the assay with Trypanosoma evansi [3]; 26.31% in assay [4]; 73.09% in assay [5]; 99.96% in the assay with Trypanosoma congolense [6]. Further, the results for the 50% inhibitory concentration (IC50) (in [7]; in the assay on Trypanosoma evansi [8]; in the assay with Trypanosoma congolense [9]) were 6.79 µg/mL (≈ 11.7 µM), 6.52 µg/mL (≈ 11.3 µM) and 9.26 µg/mL (≈ 16 µM), respectively.
As for `Oc1cc(O)c2c(c1)O[C@H](c1ccc(O)c(O)c1)[C@H](O)C2` [(-)-EPICATECHIN], the Activity in [1] was 74.01%; in [2], 8.81%; with Trypanosoma evansi [3], 54.44%; in assay [4] it was 29.77%; in assay [5] it was 11.49%; in the assay on Trypanosoma congolense [6], 13.33%.
Take `COc1cc(O)cc(OC)c1OC` [ANTIAROL]: the Activity in [1] was found to be 94.68%; in assay [2] it was 20.12%; in the assay on Trypanosoma evansi [3] it was 0%; in [4] it was 32.18%; in assay [5] it was 43.51%; in the assay on Trypanosoma congolense [6], 1.68%. Moreover, the IC50 in assay [7] amounted to 24.9 µg/mL (≈ 135 µM).
As for `Oc1cc(O)c2c(c1)O[C@H](c1ccc(O)c(O)c1)[C@@H](O)C2` [CIANIDANOL], the Activity in assay [1] worked out at 100.03%; in assay [2], 2.35%; with Trypanosoma evansi [3], 66.43%; in assay [4], 22.82%; in assay [5] it was 9.71%; with Trypanosoma congolense [6], 22.03%. Also, the figures for the 50% inhibitory concentration (IC50) (in assay [7]; in the assay with Trypanosoma evansi [8]) were 47.6 µg/mL (≈ 164 µM) and 14.9 µg/mL (≈ 51.3 µM), respectively.
Turning to `CC1CS(=O)(=O)CCN1/N=C/c1ccc([N+](=O)[O-])o1` (configuration not stated) [NIFURTIMOX], the IC50 stood at 0.42 µg/mL (≈ 1.46 µM) in [7] and 0.3 µg/mL (≈ 1.04 µM) with Trypanosoma congolense [9].
